Usually EC50 stands for the concentration needed to bring the measured effect to its halfway point. A low value points to higher potency in that assay. Usually IC50 stands for the midpoint of a concentration-inhibition curve. In general, AC50 refers to the midpoint of the concentration-response curve, whichever way the signal moves. Usually CC50 stands for the concentration at which the toxic effect on the cells reaches its halfway point. For orientation: IC90 means the concentration at which the effect reaches the 90% level.

6 compounds from ChEMBL document CHEMBL1201862, “PubChem BioAssay data set” (2004) can be followed below.

In data set [1] the target is Luciferin 4-monooxygenase (Photinus pyralis, UniProt P08659). The experiment in a line: inhibition of purified Photinus pyralis luciferase – biochemical, luminescence, dose response (AID 1891).
In data set [2] the target is Glutathione-S-transferase (Schistosoma japonicum, UniProt Q26513). The experiment in a line: GST-antibody interaction or FRET quenching – biochemical, TR-FRET, artefact control for Vif-APOBEC3G degradation inhibitor project, dose response (AID 1117362). The data set is classed as functional. (In general: In TR-FRET formats the signal depends on donor and acceptor labels being close together.)

For a further data set, the target named is Protein Tat (Human immunodeficiency virus type 1 group M subtype B (isolate HXB2)(HIV-1), UniProt P04608). It is filed as functional.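 Further: tat binding to TAR RNA read out by fluorescence polarization.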
Data set [3] in a line: Luminescence Cell-Based Dose Confirmation HTS to Identify Inhibitors of Platelet Dense Granule Release. [Related pubchem assays: 1663 (Primary HTS), 1678 (Summary of Project)]. It is filed as functional.
Data set [4] is described as follows: viability loss in HEK293T cells – cell-based, ATP luminescence, dry powder, set 3, cytotoxicity control, dose response (AID 743131). It is filed as functional. The settings on record: HEK293.
In a further data set the target is T1, Cytochrome P450 1A2 (Homo sapiens, UniProt P05177).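 Further: PubChem cytochrome P450 panel assay, CYP1A2 panel member.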
T1 sequence (P05177 whole entry): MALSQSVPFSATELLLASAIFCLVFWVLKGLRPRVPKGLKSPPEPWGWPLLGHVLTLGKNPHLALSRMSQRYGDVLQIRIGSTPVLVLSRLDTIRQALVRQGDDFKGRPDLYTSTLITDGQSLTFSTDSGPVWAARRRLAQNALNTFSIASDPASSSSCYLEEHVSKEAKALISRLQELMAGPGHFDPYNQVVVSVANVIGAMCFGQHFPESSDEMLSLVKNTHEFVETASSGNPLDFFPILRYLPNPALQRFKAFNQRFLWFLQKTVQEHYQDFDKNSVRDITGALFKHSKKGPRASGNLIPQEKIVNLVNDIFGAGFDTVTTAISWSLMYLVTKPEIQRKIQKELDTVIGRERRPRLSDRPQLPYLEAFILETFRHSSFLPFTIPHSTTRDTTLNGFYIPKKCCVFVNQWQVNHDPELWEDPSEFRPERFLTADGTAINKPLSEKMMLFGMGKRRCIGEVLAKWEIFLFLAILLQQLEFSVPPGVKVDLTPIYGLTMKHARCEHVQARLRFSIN

Data set [5] in a line: A Cell-Based Confirmatory Screen for Compounds that Inhibit VEEV, TC-83 (2). It is filed as functional.
Data set [6] in a line: A Cell-Based Counter Screen testing Compounds that Inhibit VEEV TC-83, in strain KU V3526. The data set is classed as functional. A general note: A counterscreen serves to expose hits that act by an unwanted route or on another target.
A short description of data set [7]: viability of uninfected HEp-2 cells – cell-based, HTS, cytotoxicity control for RSV inhibitor project, dose response (AID 2410). Conditions: human respiratory syncytial virus. The data set is classed as functional.
Data set [8] can be described thus: viability loss in Vero 76 cells – cell-based, set 2, cytotoxicity control, dose response (AID 602240). The settings on record: Venezuelan equine encephalitis virus. The data set is classed as functional.
The test system of data set [9] is Vero. The data set can be described thus: cells. The data set is classed as functional, cell-based. The settings on record: Chlorocebus sabaeus.
A further data set deals with Cytochrome P450 3A4 (Homo sapiens, UniProt P08684).
Data set [10] relates to Vero. The experiment in a line: cells. The data set is classed as functional. Conditions: Chlorocebus sabaeus.
The next data set deals with Paired box protein Pax-8 (Homo sapiens, UniProt Q06710). The experiment in a line: PAX8 transcriptional activity inhibition in RMG-I – RMG-I cells, luciferase, cherry-pick, dose response (AID 687027).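 Further: luciferase reporter driven by Pax8 target thyroperoxidase promoter measured by SteadyGlo luminescence.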 It is filed as functional, cell-based.
A short description of data set [11]: PAX8-dependent cell viability loss – plate reader, dry powder, dose response (AID 743049). It is filed as functional, cell-based.
The nature of data set [12]: inhibitors acting on PAX2 in cells – cell-based, plate reader, dry powder samples, selectivity assay for PAX8 inhibitor project, dose response (AID 743048).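 Further: HEK293 cells carrying a WT1 promoter luciferase reporter driven by expressed Pax2; potency is for inhibition of Pax2 driven reporter signal.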 It is filed as functional.
A short description of data set [13]: OV-90 cell viability loss – plate reader, dry powder, SA8, PAX8 inhibitor project, dose response (AID 743149). It is filed as functional, cell-based.
A short description of data set [14]: PAX5 cellular inhibition readout – cell-based, plate reader, dry powder samples, selectivity assay for PAX8 inhibitor project, dose response (AID 743047).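 Further: HEK293 cells carrying a Pax5 driven CD19 promoter luciferase reporter; potency of inhibitors that lower reporter luminescence.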 The data set is classed as functional.
Data set [15] can be described thus: Late-stage results from the probe development effort to identify antagonists of arginine vasopressin receptor 1a (AVPR1a): fluorescence-based cell-based dose response OXTR inhibition counterscreen assay. It is filed as functional.
In a further data set the target is Vasopressin V2 receptor (Homo sapiens, UniProt P30518). The data set can be described thus: Late-stage results from the probe development effort to identify antagonists of arginine vasopressin receptor 1a (AVPR1a): fluorescence-based cell-based dose response AVPR2 inhibition counterscreen assay. It is filed as functional.
Data set [16] in a line: Late-stage results from the probe development effort to identify antagonists of arginine vasopressin receptor 1a (AVPR1a): fluorescence-based cell-based dose response AVPR1a inhibition assay. It is filed as functional.
In the next data set the target is Vasopressin V1b receptor (Homo sapiens, UniProt P47901). The experiment in a line: Late-stage results from the probe development effort to identify antagonists of arginine vasopressin receptor 1a (AVPR1a): fluorescence-based cell-based dose response AVPR1b inhibition counterscreen assay. It is filed as functional.
Data set [17] in a line: inhibitors of non-replicating M. tuberculosis, dose response, luciferase, dry powder (AID 651619). The data set is classed as functional. Conditions: Mycobacterium tuberculosis.
The nature of data set [18]: HeLa cell viability loss – plate reader, dry powder, cytotoxicity control, dose response (AID 651946). The data set is classed as functional, cell-based.
Data set [19] in a line: inhibitors of non-replicating M. tuberculosis, dose response, luciferase, dry powder (AID 651620). The data set is classed as functional. Conditions: Mycobacterium tuberculosis.
Data set [20] can be described thus: viability loss in HEK293T cells – cell-based, CellTiter-Glo luminescence, dry powder, set 6, cytotoxicity control, dose response (AID 651949). It is filed as functional. The settings on record: HEK293.
A short description of data set [21]: growth inhibition of replicating M. tuberculosis, dose response, counter-screen, dry powder, IC90 (AID 651617). It is filed as functional. The settings on record: Mycobacterium tuberculosis.

Calls of active or inactive are those of the source. Where only a bound is given, the exact number is not on record here.

Sequence of Glutathione-S-transferase (Q26513 whole entry): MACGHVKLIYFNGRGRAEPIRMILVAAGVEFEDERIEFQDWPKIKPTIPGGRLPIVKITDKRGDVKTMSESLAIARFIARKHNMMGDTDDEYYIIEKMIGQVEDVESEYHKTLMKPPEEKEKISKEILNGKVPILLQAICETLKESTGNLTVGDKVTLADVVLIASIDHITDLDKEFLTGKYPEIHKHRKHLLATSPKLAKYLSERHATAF
Sequence of Vasopressin V2 receptor (P30518 whole entry): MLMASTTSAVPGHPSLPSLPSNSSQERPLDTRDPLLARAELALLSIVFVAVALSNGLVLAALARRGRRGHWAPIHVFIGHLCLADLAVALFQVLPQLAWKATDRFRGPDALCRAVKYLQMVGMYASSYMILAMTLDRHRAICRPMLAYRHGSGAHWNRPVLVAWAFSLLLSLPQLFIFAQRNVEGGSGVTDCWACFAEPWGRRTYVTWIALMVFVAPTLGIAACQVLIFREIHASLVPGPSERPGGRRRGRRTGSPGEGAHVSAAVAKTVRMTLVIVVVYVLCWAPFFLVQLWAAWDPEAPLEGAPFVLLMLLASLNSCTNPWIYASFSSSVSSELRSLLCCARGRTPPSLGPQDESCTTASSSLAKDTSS
Sequence of Vasopressin V1b receptor (P47901 whole entry): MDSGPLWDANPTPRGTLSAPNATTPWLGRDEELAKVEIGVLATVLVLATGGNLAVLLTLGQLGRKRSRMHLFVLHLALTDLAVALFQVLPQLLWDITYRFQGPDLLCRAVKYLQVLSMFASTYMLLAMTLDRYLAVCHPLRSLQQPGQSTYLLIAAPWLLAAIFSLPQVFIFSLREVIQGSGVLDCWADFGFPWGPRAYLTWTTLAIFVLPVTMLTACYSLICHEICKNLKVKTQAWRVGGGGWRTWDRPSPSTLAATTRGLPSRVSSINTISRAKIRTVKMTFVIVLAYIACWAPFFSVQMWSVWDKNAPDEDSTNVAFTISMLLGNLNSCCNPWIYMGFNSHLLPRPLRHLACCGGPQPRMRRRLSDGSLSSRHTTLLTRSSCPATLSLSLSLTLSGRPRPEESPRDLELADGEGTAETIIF
Sequence of Protein Tat (P04608 whole entry): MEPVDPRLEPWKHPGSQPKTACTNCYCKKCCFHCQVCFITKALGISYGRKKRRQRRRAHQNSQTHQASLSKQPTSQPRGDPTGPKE
Sequence of Luciferin 4-monooxygenase (P08659 whole entry): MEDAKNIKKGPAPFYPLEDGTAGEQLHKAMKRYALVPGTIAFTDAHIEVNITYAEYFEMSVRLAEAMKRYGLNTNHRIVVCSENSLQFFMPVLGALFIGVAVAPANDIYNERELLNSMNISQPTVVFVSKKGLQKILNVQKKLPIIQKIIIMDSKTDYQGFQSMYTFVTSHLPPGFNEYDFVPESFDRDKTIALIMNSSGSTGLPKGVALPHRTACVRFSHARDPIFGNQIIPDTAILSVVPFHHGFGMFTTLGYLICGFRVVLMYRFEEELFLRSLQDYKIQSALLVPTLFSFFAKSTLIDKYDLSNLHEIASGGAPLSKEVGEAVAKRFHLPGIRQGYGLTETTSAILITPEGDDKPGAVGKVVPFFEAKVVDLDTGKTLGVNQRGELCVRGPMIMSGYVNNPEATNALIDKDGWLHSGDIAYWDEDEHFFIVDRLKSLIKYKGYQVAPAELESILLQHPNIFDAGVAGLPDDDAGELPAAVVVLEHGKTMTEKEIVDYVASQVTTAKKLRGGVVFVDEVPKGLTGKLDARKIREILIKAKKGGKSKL
Sequence of Cytochrome P450 3A4 (P08684 whole entry): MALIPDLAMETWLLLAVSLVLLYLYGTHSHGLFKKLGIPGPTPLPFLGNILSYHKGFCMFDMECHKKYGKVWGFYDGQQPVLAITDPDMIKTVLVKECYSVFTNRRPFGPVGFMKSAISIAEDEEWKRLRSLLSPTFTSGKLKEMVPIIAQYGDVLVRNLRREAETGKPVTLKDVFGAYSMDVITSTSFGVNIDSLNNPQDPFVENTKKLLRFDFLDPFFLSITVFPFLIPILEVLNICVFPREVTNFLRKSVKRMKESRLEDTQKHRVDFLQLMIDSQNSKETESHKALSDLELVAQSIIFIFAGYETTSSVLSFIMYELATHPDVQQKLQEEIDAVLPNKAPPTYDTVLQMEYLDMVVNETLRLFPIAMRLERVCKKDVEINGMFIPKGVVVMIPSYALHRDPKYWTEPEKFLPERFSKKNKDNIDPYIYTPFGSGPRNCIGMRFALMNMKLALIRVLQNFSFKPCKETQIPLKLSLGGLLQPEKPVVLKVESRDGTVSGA
Sequence of Paired box protein Pax-8 (Q06710 whole entry): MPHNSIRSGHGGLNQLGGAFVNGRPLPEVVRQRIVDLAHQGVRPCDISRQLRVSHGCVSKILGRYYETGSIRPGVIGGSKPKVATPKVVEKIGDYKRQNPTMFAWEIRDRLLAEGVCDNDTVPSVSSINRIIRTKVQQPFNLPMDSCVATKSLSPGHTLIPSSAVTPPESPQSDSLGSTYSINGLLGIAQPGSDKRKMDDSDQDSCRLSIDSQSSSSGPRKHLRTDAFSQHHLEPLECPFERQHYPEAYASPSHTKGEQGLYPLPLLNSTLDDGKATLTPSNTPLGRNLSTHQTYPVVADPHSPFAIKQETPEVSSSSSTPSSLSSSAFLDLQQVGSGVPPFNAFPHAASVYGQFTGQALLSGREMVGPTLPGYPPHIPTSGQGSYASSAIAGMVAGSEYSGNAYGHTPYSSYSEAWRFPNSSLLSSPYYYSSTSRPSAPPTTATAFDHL

As for `O=C(NC(=S)N1CCCc2ccccc21)c1ccccc1`, the 50% effective concentration (EC50) in data set [1] and in data set [3] was > 112 µM (not active) throughout. For the same compound, the IC50 is 90.8 µM (active) in data set [2] and > 100 µM (active) on Protein Tat.
Turning to `Cc1ccccc1OCCn1c(S)nc2ccccc21`, the AC50 in [4] is 0.344 µM (active).
As to `CCOC(=O)c1ccc(Nc2nc(=O)c3cccnc3s2)cc1`, the IC50 in “cells” was 9.32 µM (active); in [5], 10.8 µM (active); in data set [6], 7.07 µM (active); in the data set with Vero [9], 6.32 µM (active). Besides, the AC50 is 14.1 µM (inconclusive) on Cytochrome P450 1A2 and “inconclusive” on Cytochrome P450 3A4. Besides, the CC50 in [7] is 22.4 µM (active); in data set [8], > 50 µM (active); in the data set on Vero [10] it was > 25 µM (active).
For `N#C[C@@H]1[C@@H](c2ccc(-c3ccccc3F)cc2)[C@@H](CO)N1C(=O)C1CCC1`, the AC50 at Paired box protein Pax-8 is 8.88 µM (active); in data set [11], > 70 µM (inactive); in data set [12], > 70 µM (inactive); in [13], > 70 µM (inactive); in data set [14] it was 60.8 µM (active).
Regarding `N#Cc1ccnc(N2CCC(C(=O)N(CC3CC3)c3ccc(Cl)cc3)CC2)c1`, the IC50 in [15] was 4.6 µM (active); on Vasopressin V2 receptor, > 50 µM (inactive); in [16] it was 0.0628 µM (active); on Vasopressin V1b receptor, > 50 µM (inactive).
As to `COc1cccc(-c2nnc(SCc3ccccn3)o2)c1`, the IC90 in data set [17] was 4 µM (active); in data set [19], 4 µM (active); in data set [21] it was 125 µM (active). Moreover, the AC50 in [18] and in data set [20] was > 52 µM (inactive) throughout.
